# Where no end group is shown, it is not given here.
# Key:
# [1] = test system: immune system gene; assay: DNA chip analysis of immune system gene expression after treatment with the HPLC-purified peptide (Table 2); assay type: cell-based, human
# Description: (§1) In this diagnosis method, cells or tissues of interest are treated with the peptide of the present invention as in the above-mentioned diagnosis method 1; thus the same specimen as in the diagnosis method 1 can be used. However, in this diagnosis method, the reverse transcription is conducted to generate a cDNA (first-strand cDNA) pool, which is complementary to the mRNA, by using total mRNA extracted from the cells or tissues treated with the peptide as a template and using oligo-dT primer having T7 RNA polymerase promoter region as a reverse primer. Then, after the second-strand cDNA synthesis, in vitro transcription (IVT) was conducted using T7 RNA polymerase and biotinylated rNTPs at 37° C. for 14 hr to yield biotin-labeled cRNA. The amount of the cRNA is measured with a spectrophotometer to confirm that at least […] of cRNA can be yielded.
# (§2) The diagnosis method further includes processes for bringing this cRNA labeled with fluorescence dye or the like into contact with cDNA of a cancer-related gene which is immobilized on a plate for hybridization and for measuring the fluorescence intensity.
# (§3) Thus, on the basis of the expression condition of a cancer-related gene, a tendency of canceration or malignancy of cancer can be determined.
# (§4) An increase or decrease in the expression amount of a cancer-related gene is determined by comparing the expression level in a control. The cells and tissues used as the control are the same as those used in the diagnosis method 1.
# (§5) Tables 1 and 2 show examples of cancer-related genes of which expression is increased and immune system genes of which expression is increased or decreased by the treatment with the peptide (HPLC-purified peptide) derived from cell membrane surfaces of human squamous-cell carcinoma cells UTC-8 (Deposition No.: FERM BP-08611, which is deposited with International Patent Organism Depositary, National Institute of Advanced Industrial Science and Technology).
# (§6) The present inventor has verified the validity of this diagnosis method using 55000 cancer-related genes. When such a great number of cancer-related genes are used, DNA chip technology is preferably used. In the DNA chip technology, each DNA of the cancer-related genes is immobilized so as to be arrayed on a slide; the above-mentioned labeled cRNA solution is dropped into the slide; the cRNA which is not hybridized is removed by washing; and fluorescence intensity of each gene position is detected by a scanner. The results are compared with the result which is obtained by conducting the same process using the above-mentioned control solution. Thus, cancer-related genes of which expression is increased or decreased when cells or tissues are treated with the peptide of the present invention can be exhaustively analyzed.
# [2] = test system: cancer-related gene; assay: DNA chip analysis of cancer-related gene expression after treatment with the HPLC-purified peptide (Table 1); assay type: cell-based, human
# Description: as §1, §2, §3, §4, §5, §6
sequence,measurement,setting,value
"QPQFGRRMESK [HPLC-purified peptide, peptide (HPLC-purified peptide) derived from cell membrane surfaces of human squamous-cell carcinoma cells UTC-8]",TDP,[1]; enhanced gene D10202 platelet-activating factor receptor,1.506
same,TDP,[1]; enhanced gene J04130 chemokine (C-C motif) ligand 4,7.341
same,TDP,"[1]; enhanced gene K02770 interleukin 1, beta",11.69
same,TDP,"[1]; enhanced gene NM_000173 glycoprotein Ib (platelet), alpha polypeptide",1.529
same,TDP,"[1]; enhanced gene NM_000211 integrin, beta 2",3.326
same,TDP,"[1]; enhanced gene NM_001733 complement component 1, r subcomponent",1.543
same,TDP,"[1]; enhanced gene NM_002000 Fc fragment of IgA, receptor for",1.871
same,TDP,[1]; enhanced gene NM_002969 mitogen-activated protein kinase 12,1.53
same,TDP,[1]; enhanced gene NM_002983 chemokine (C-C motif) ligand 3,1.542
same,TDP,[1]; enhanced gene NM_003199 transcription factor 4,1.621
same,TDP,"[1]; enhanced gene NM_006186 nuclear receptor subfamily 4, group A, member 2",2.06
same,TDP,[1]; enhanced gene X03663 colony stimulating factor 1 receptor,2.781
same,TDP,"[1]; suppressed gene K01171 major histocompatibility complex, class II, DR alpha",0.319
same,TDP,"[1]; suppressed gene NM_000397 cytochrome b-245, beta polypeptide",0.631
same,TDP,[1]; suppressed gene NM_001311 cysteine-rich protein 1 (intestinal),0.561
same,TDP,[1]; suppressed gene NM_001776 ectonucleoside triphosphate diphosphohydrolase 1,0.646
same,TDP,[1]; suppressed gene NM_001783 CD79A antigen,0.4
same,TDP,"[1]; suppressed gene NM_002118 major histocompatibility complex, class II, DM beta",0.335
same,TDP,"[1]; suppressed gene NM_002121 major histocompatibility complex, class II, DP beta 1",0.633
same,TDP,"[1]; suppressed gene NM_002123 major histocompatibility complex, class II, DQ beta 1",0.328
same,TDP,"[1]; suppressed gene NM_002124 major histocompatibility complex, class II, DR beta 1",0.502
same,TDP,"[1]; suppressed gene NM_002258 killer cell lectin-like receptor subfamily B, member 1",0.653
same,TDP,"[1]; suppressed gene NM_002260 killer cell lectin-like receptor subfamily C, member 2",0.603
same,TDP,"[1]; suppressed gene NM_003891 protein Z, vitamin K-dependent plasma glycoprotein",0.618
same,TDP,"[1]; suppressed gene NM_004106 Fc fragment of IgE, high affinity I, receptor for, gamma polypeptide",0.382
same,TDP,"[1]; suppressed gene NM_004133 hepatocyte nuclear factor 4, gamma",0.635
same,TDP,[1]; suppressed gene NM_004528 microsomal glutathione S-transferase 3,0.561
same,TDP,"[1]; suppressed gene NM_004636 sema domain, (semaphorin) 3B",0.459
same,TDP,[1]; suppressed gene NM_004750 cytokine receptor-like factor 1,0.626
same,TDP,[1]; suppressed gene NM_005545 immunoglobulin superfamily containing leucine-rich repeat,0.579
same,TDP,"[1]; suppressed gene NM_006120 major histocompatibility complex, class II, DM alpha",0.298
same,TDP,"[1]; suppressed gene NM_006864 leukocyte immunoglobulin-like receptor, subfamily B, member 3",0.662
same,TDP,[1]; suppressed gene NM_007052 NADPH oxidase 1,0.662
same,TDP,[1]; suppressed gene NM_014442 sialic acid binding Ig-like lectin 8,0.641
same,TDP,"[1]; suppressed gene NM_016523 killer cell lectin-like receptor subfamily F, member 1",0.644
same,TDP,"[1]; suppressed gene NM_018661 defensin, beta 103",0.528
same,TDP,[1]; suppressed gene U77604 microsomal glutathione S-transferase 2,0.349
same,TDP,"[1]; suppressed gene Y00815 protein tyrosine phosphatase, receptor type, F",0.475
same,Fold Change,[2]; gene AF040963 MXD4,2.357
same,Fold Change,[2]; gene D16431 HDGF,3.596
same,Fold Change,[2]; gene D26120 splicing factor 1,2.833
same,Fold Change,"[2]; gene K03218 SRC, v-src sarcoma viral oncogene homolog",3.912
same,Fold Change,[2]; gene M13150 MAS1,2.07
same,Fold Change,[2]; gene M32977 VEGF,2.457
same,Fold Change,[2]; gene M60119 HIVEP2,2.205
same,Fold Change,[2]; gene M62829 EGR1,2.105
same,Fold Change,[2]; gene M83221 RELB,2.351
same,Fold Change,[2]; gene M95712 BRAF,3.034
same,Fold Change,[2]; gene NM_000753 PDE3B,2.741
same,Fold Change,[2]; gene NM_001201 BMP3,3.736
same,Fold Change,[2]; gene NM_001402 EEF1A1,2.405
same,Fold Change,[2]; gene NM_001419 ELAVL1,2.95
same,Fold Change,[2]; gene NM_001511 CXCL1,2.477
same,Fold Change,[2]; gene NM_001570 IRAK2,2.24
same,Fold Change,[2]; gene NM_001665 ARHG,2.111
same,Fold Change,[2]; gene NM_002357 MAD,2.397
same,Fold Change,[2]; gene NM_002613 PDPK1,2.866
same,Fold Change,[2]; gene NM_002712 PPP1R7,2.697
same,Fold Change,[2]; gene NM_003017 SFRS3,2.742
same,Fold Change,[2]; gene NM_003685 KHSRP,2.04
same,Fold Change,[2]; gene NM_004204 PIGQ,2.756
same,Fold Change,"[2]; gene NM_004218 RAB11B, member RAS oncogene family",2.102
same,Fold Change,[2]; gene NM_004723 ARHGEF2,2.209
same,Fold Change,[2]; gene NM_004906 WTAP,2.544
same,Fold Change,[2]; gene NM_005207 CRKL,2.497
same,Fold Change,[2]; gene NM_005524 HES1,2.395
same,Fold Change,"[2]; gene NM_005730 CTDSP2, conserved gene amplified in osteosarcoma",2.387
same,Fold Change,[2]; gene NM_005850 SF3B4,3.023
same,Fold Change,[2]; gene NM_005937 MLLT6,2.996
same,Fold Change,[2]; gene NM_006191 PA2G4,2.002
same,Fold Change,[2]; gene NM_006318 putative glialblastoma cell differentiation-related,2.098
same,Fold Change,[2]; gene NM_006694 JTB,2.019
same,Fold Change,"[2]; gene NM_006716 ASK, activator of S phase kinase",2.23
same,Fold Change,"[2]; gene NM_006842 splicing factor 3b, subunit 2, 145 kDa",2.245
same,Fold Change,[2]; gene NM_007040 E1B-AP5,2.433
same,Fold Change,[2]; gene NM_007279 U2AF2,2.494
same,Fold Change,[2]; gene NM_012103 AUP1,2.46
same,Fold Change,[2]; gene NM_014308 P101-PI3K,2.849
same,Fold Change,[2]; gene NM_015714 G0S2,2.481
same,Fold Change,[2]; gene NM_016263 FZR1,2.466
same,Fold Change,[2]; gene U33819 MAZ,2.093
same,Fold Change,[2]; gene X03663 CSF1R,2.781
same,Fold Change,[2]; gene X54936 PGF,3.576
same,Fold Change,[2]; gene X61498 NFKB2,2.833
same,Fold Change,[2]; gene X78710 MTF1,2.001
